Reference: ChEMBL document CHEMBL1156884, “Improvement of physiochemical properties of the tetrahydroazepinoindole series of farnesoid X receptor (FXR) agonists: beneficial modulation of lipids in primates” (J Med Chem, 2010)
In brackets after ≈: the same amount, converted by molar mass.

How the values were obtained:
[1] = Equilibrium solubility in 0.5% methylcellulose/2% Tween-80 in water; assay type: physicochemical
[2] = Tmax in Sprague-Dawley rat 3 mg/kg, po; assay type: ADME, organism-based; set-up: dose 3 mg/kg, route oral; conditions: in vivo
[3] = Oral bioavailability in Sprague-Dawley rat 3 mg/kg; assay type: ADME, organism-based; conditions: in vivo
[4] = AUC (0 to infinity) in C57 mouse at 3 mg/kg, iv; assay type: ADME, organism-based; set-up: time infinity, dose 3 mg/kg, route intravenous; conditions: plasma
[5] = (§1) AUC (0 to infinity) in Sprague-Dawley rat at 3 mg/kg, iv; assay type: ADME, organism-based, Plasma; set-up: time infinity, dose 3 mg/kg, route intravenous; conditions: Sprague-Dawley, plasma
[6] = Tmax in C57 mouse at 3 mg/kg, po; assay type: ADME, organism-based; set-up: dose 3 mg/kg, route oral; conditions: in vivo
[7] = AUC (0 to infinity) in Sprague-Dawley rat at 3 mg/kg, po; assay type: ADME, organism-based; set-up: time infinity, dose 3 mg/kg, route oral; conditions: plasma
[8] = AUC (0 to infinity) in C57 mouse at 3 mg/kg, po; assay type: ADME, organism-based; set-up: time infinity, dose 3 mg/kg, route oral; conditions: plasma
[9] = Cmax in C57 mouse at 3 mg/kg, po; assay type: ADME, organism-based; set-up: dose 3 mg/kg, route oral; conditions: in vivo
[10] = Cmax in Sprague-Dawley rat at 3 mg/kg, po; assay type: ADME, organism-based; set-up: dose 3 mg/kg, route oral; conditions: in vivo
Rattus norvegicus [11] = test: AUC (0 to infinity) in Sprague-Dawley rat at 30 mg/kg, po; assay type: ADME, organism-based, Plasma; set-up: time infinity, dose 30 mg/kg, route oral; conditions: in vivo
[12] = AUC (0 to infinity) in C57 mouse at 30 mg/kg, po; assay type: ADME, organism-based; set-up: time infinity, dose 30 mg/kg, route oral; conditions: plasma
[13] = Cmax in Sprague-Dawley rat at 30 mg/kg, po; assay type: ADME, organism-based; set-up: dose 30 mg/kg, route oral; conditions: in vivo
Rattus norvegicus [14] = test: as §1; assay type: ADME, organism-based, Plasma; set-up: time infinity, dose 3 mg/kg, route intravenous; conditions: in vivo
Rattus norvegicus [15] = test: Oral bioavailability in Sprague-Dawley rat at 30 mg/kg; assay type: ADME, organism-based; conditions: in vivo
[16] = Tmax in C57 mouse at 30 mg/kg, po; assay type: ADME, organism-based; set-up: dose 30 mg/kg, route oral; conditions: in vivo
[17] = Oral bioavailability in C57 mouse at 30 mg/kg; assay type: ADME, organism-based; conditions: in vivo
[18] = Cmax in C57 mouse at 30 mg/kg, po; assay type: ADME, organism-based; set-up: dose 30 mg/kg, route oral; conditions: in vivo
[19] = Tmax in Sprague-Dawley rat 30 mg/kg, po; assay type: ADME, organism-based; set-up: dose 30 mg/kg, route oral; conditions: in vivo

Row | Structure (SMILES) | solubility thermodynamic [1] | also measured
1 | CC(C)OC(=O)C1=CN(C(=O)c2ccc(OCCCN(C)C)cc2)CC(C)(C)c2c1[nH]c1ccccc21 | 2470 µg/mL (≈ 4900 µM) | –
2 | CC(C)OC(=O)C1=CN(C(=O)c2ccc(OCCN3CCN(C)CC3)cc2)CC(C)(C)c2c1[nH]c1ccccc21 | 82 µg/mL (≈ 151 µM) | –
3 | CC(C)OC(=O)C1=CN(C(=O)c2ccc(CN3CCOCC3)cc2)CC(C)(C)c2c1[nH]c1cc(F)ccc21 | 380 µg/mL (≈ 731 µM) | –
4 | CC(C)OC(=O)C1=CN(C(=O)c2ccc(OCCN3CCCCC3)cc2)CC(C)(C)c2c1[nH]c1ccccc21 | 80 µg/mL (≈ 151 µM) | –
5 | CC(C)OC(=O)C1=CN(C(=O)c2ccc(OCCN3CCOCC3)cc2)CC(C)(C)c2c1[nH]c1ccccc21 | 80 µg/mL (≈ 150 µM) | –
6 | CC(C)OC(=O)C1=CN(C(=O)c2ccc(OCCN3CCOCC3)cc2)CC(C)(C)c2c1[nH]c1cc(F)ccc21.Cl | > 6000 µg/mL | –
7 | CC(C)OC(=O)C1=CN(C(=O)c2cccc(OCCCN3CCCCC3)c2)CC(C)(C)c2c1[nH]c1ccccc21 | 1040 µg/mL (≈ 1920 µM) | –
8 | CC(C)OC(=O)C1=CN(C(=O)c2cccc(OCCCN3CCN(C)CC3)c2)CC(C)(C)c2c1[nH]c1ccccc21 | 1740 µg/mL (≈ 3110 µM) | –
9 | CC(C)OC(=O)C1=CN(C(=O)c2ccc(OCCCN3CCOCC3)cc2)CC(C)(C)c2c1[nH]c1cc(F)ccc21 | 250 µg/mL (≈ 444 µM) | Tmax [2]: 2 h; bioavailability [3]: 38%; AUC(0-inf) [4]: 1720 ng·h/mL; AUC(0-inf) [5]: 960 ng·h/mL; Tmax [6]: 1 h; AUC(0-inf) [7]: 361 ng·h/mL; AUC(0-inf) [8]: 370 ng·h/mL; Cmax [9]: 81 ng/mL; Cmax [10]: 68 ng/mL
10 | CC(C)OC(=O)C1=CN(C(=O)c2ccc(OCCN(C)C)cc2)CC(C)(C)c2c1[nH]c1ccccc21 | 17 µg/mL (≈ 34.7 µM) | –
11 | CC(C)OC(=O)C1=CN(C(=O)c2ccc(OCCCN3CCCCC3)cc2)CC(C)(C)c2c1[nH]c1ccccc21 | 1220 µg/mL (≈ 2240 µM) | –
12 | CC(C)OC(=O)C1=CN(C(=O)c2cccc(OCCN(C)C)c2)CC(C)(C)c2c1[nH]c1ccccc21 | 536 µg/mL (≈ 1090 µM) | –
13 | CC(C)OC(=O)C1=CN(C(=O)c2ccc(OCCCN3CCOCC3)cc2)CC(C)(C)c2c1[nH]c1cc(F)ccc21.Cl | 5920 µg/mL | –
14 | CC(C)OC(=O)C1=CN(C(=O)c2ccc(OCCN3CCOCC3)cc2)CC(C)(C)c2c1[nH]c1cc(F)ccc21 | 280 µg/mL (≈ 509 µM) | AUC (Rattus norvegicus [11]): 193 ng·h/mL; AUC(0-inf) [12]: 6700 ng·h/mL; AUC(0-inf) [4]: 1260 ng·h/mL; Cmax [13]: 35 ng/mL; AUC (Rattus norvegicus [14]): 781 ng·h/mL; F (Rattus norvegicus [15]): 25%; Tmax [16]: 1 h; bioavailability [17]: 53%; Cmax [18]: 1130 ng/mL; Tmax [19]: 1.7 h
15 | CC(C)OC(=O)C1=CN(C(=O)c2ccc(CN3CCOCC3)cc2)CC(C)(C)c2c1[nH]c1ccccc21 | 245 µg/mL (≈ 488 µM) | –
16 | CC(C)OC(=O)C1=CN(C(=O)c2ccc(OCCCN3CCOCC3)cc2)CC(C)(C)c2c1[nH]c1ccccc21 | 200 µg/mL (≈ 367 µM) | –
17 | CC(C)OC(=O)C1=CN(C(=O)c2cccc(OCCCN3CCOCC3)c2)CC(C)(C)c2c1[nH]c1ccccc21 | 118 µg/mL (≈ 216 µM) | –
18 | CC(C)OC(=O)C1=CN(C(=O)c2cccc(OCCN3CCOCC3)c2)CC(C)(C)c2c1[nH]c1ccccc21 | 155 µg/mL (≈ 292 µM) | –
19 | CC(C)OC(=O)C1=CN(C(=O)c2ccc(OCCCN3CCCC3)cc2)CC(C)(C)c2c1[nH]c1ccccc21 | 2330 µg/mL (≈ 4400 µM) | –
20 | CC(C)OC(=O)C1=CN(C(=O)c2ccc(OCCCN3CCN(C)CC3)cc2)CC(C)(C)c2c1[nH]c1ccccc21 | 1140 µg/mL (≈ 2040 µM) | –
21 | CC(C)OC(=O)C1=CN(C(=O)c2ccc(OCCN3CCCC3)cc2)CC(C)(C)c2c1[nH]c1ccccc21 | 24 µg/mL (≈ 46.5 µM) | –
22 | CC(C)OC(=O)C1=CN(C(=O)c2cccc(OCCN3CCCCC3)c2)CC(C)(C)c2c1[nH]c1ccccc21 | 111 µg/mL (≈ 210 µM) | –
